According to patent US10987339B2, “Uses of butylidenephthalide” (EVERFRONT BIOTECH INC., priority 2015, dated 2021):

Columns and labels:
Sox-2 [1] = test: Western blotting, Sox-2 expression in MiaPaCa-2 cells; format: cell-based; settings: MiaPaCa-2 cells, 0, 12.5, 25 and 50 μg/ml BP, 24 hours, FIG. 2
Method: (§1) It has been known that CD44, CD133, Sox-2 (sex-determining region Y protein (SRY)-related high-mobility group box 2) and Oct4 (octamerbinding transcription factor 4) proteins all are stemness-maintenance markers of cancer stem cells and participate in the regulation of the self-renewal and differentiation of cancer stem cells. MiaPaCa-2 cell line (i.e., a cell line of pancreatic cancer cells) was treated with different concentrations (0, 12.5, 25, and 50 μg/ml) of BP for 24 hours, and then, proteins were extracted from the cells to conduct Western blotting to determine the expressions of Sox-2, CD133 and CD44 proteins in the BP-treated MiaPaCa-2 cells. Yet another. HNC-TIC-like oral stem cells (i.e., ALDH1^+CD44^+-1 cell line or ALDH1^+CD44^+-2 cell line) were treated with different concentrations (0, 12.5, 25, and 50 μg/ml) of BP for 24 hours, and then, proteins were extracted from the cells to conduct Western blotting to determine the expressions of Sox-2 and Oct4 proteins in the BP-treated HNC-TIC-like oral stem cells (i.e., ALDH1^+CD44^+-1 cell line and ALDH1^+CD44^+-2 cell line).

CD44 = test: Western blotting, CD44 expression in MiaPaCa-2 cells; format: cell-based; settings: MiaPaCa-2 cells, 0, 12.5, 25 and 50 μg/ml BP, 24 hours, FIG. 2
Method: as §1

Oct4 = test: Western blotting, Oct4 expression in HNC-TIC-like oral stem cells; format: cell-based; settings: ALDH1+CD44+-1 and ALDH1+CD44+-2 cell lines, 0, 12.5, 25 and 50 μg/ml BP, 24 hours, FIG. 3
Method: as §1

[2] = test system: HNC-TIC-like oral stem cells (ALDH1+CD44+-1 cell line and ALDH1+CD44+-2 cell line); test: MTT assay, viability of HNC-TIC-like oral stem cells; format: cell-based; settings: ALDH1+CD44+-1 and ALDH1+CD44+-2 cell lines, 0, 25, 50 and 100 μg/ml BP, 24 hours, FIG. 1
Method: (§2) To investigate the effect of BP on inhibiting the growth of cancer stem cells, NHOKs (normal human oral keratinocytes) and HNC-TIC (head and neck cancer-derived tumor initiating cell)-like oral stem cells (i.e., ALDH1^+CD44^+-1 cell line or ALDH1^+CD44^+-2 cell line) were treated with different concentrations (0, 25, 50 and 100 μg/ml) of BP for 24 hours, and then, an MTT assay was utilized to analyzed the viabilities of NHOKs and HNC-TIC-like oral stem cells (i.e., ALDH1^+CD44^+-1 cell line and ALDH1^+CD44^+-2 cell line).

CD133 = test: Western blotting, CD133 expression in MiaPaCa-2 cells; format: cell-based; settings: MiaPaCa-2 cells, 0, 12.5, 25 and 50 μg/ml BP, 24 hours, FIG. 2
Method: as §1

Sox-2 [3] = test: Western blotting, Sox-2 expression in HNC-TIC-like oral stem cells; format: cell-based; settings: ALDH1+CD44+-1 and ALDH1+CD44+-2 cell lines, 0, 12.5, 25 and 50 μg/ml BP, 24 hours, FIG. 3
Method: as §1

[4] = test system: HNC-TIC-like oral stem cells (ALDH1+CD44+-1 cell line or ALDH1+CD44+-2 cell line); test: Soft agar colony formation assay; format: cell-based
Method: In this research, a soft agar colony formation assay was used to investigate the effect of BP on inhibiting the tumor initiating activity of cancer stem cells. First, HNC-TIC-like oral stem cells (i.e., ALDH1^+CD44^+-1 cell line or ALDH1^+CD44^+-2 cell line) were treated with different concentrations (0, 25 and 50 μg/ml) of BP for 24 hours, and then, the treated cells of each group was separately seeded in the top agar [containing DMEM (Dulbecco's Modified Eagle's Medium medium), 10% (v/v) Fetal Calf Serum (FCS) and 0.3% (w/v) agar] (purchased from Sigma-Aldrich) at an initial cell number of 2×10^4. On the other hand, a six-well culture dish was coated with the bottom agar [containing DMEM, 10% (v/v) FCS and 0.6% (w/v) agar](purchased from Sigma-Aldrich), 2 ml for each well. After the bottom agar was solidified, each group of the top agar (containing oral cancer stem cells) was respectively added onto the bottom agar in different wells of the dish, 2 ml for each well. […] Lastly, the bottom agar was stained with 0.005% crystal violet, the number of colonies (with a diameter ≥100 μm) was counted over five fields per well with the use of a microscope, and those fields were photographed. The relative colony-forming ability of cells of each experimental group was calculated based on the result of the group treated with 0 μg/ml of BP.

[5] = test system: NHOKs (normal human oral keratinocytes); test: MTT assay, viability of NHOKs; format: cell-based; settings: 24 hours
Method: as §2

ALDH = test: ALDEFLUOR flow cytometry analysis of ALDH activity; format: cell-based; settings: group without DEAB addition, 0, 25 and 50 μg/ml BP, 24 hours, FIG. 4
Method: ALDH protein is also an important stemness-maintenance marker of cancer stem cells and participates in the regulation of the self-renewal and differentiation of cancer stem cells. HNC-TIC-like oral stem cells (i.e., ALDH1^+CD44^+-1 cell line or ALDH1^+CD44^+-2 cell line) were treated with different concentrations (0, 25 and 50 μg/ml) of BP for 24 hours, and then, 1×10^5 cells obtained from each group were separately suspended in 50 μl of a stem cell detection kit (i.e., ALDEEFLUOR array kit, purchased from […] Technologies Inc., Vancouver, Canada) buffer and the cell suspension of each group was separately added with ALDEFLUOR to a final concentration of 1 μM. Thereafter, a sample of each group was stained by […] and then analyzed by flow cytometry analysis to determine the ALDH activity of HNC-TIC-like oral stem cells (i.e., ALDH1^+CD44^+-1 cell line and ALDH1^+CD44^+-2 cell line).
The above experimental procedure was repeated, but the cell suspension of each group was further added with N,N-diethylaminobenzaldehyde (DEAB, i.e., an inhibitor of ALDH) to a final concentration of 150 μM of DEAB separately.

[6] = test system: HNC-TIC-like oral stem cells (ALDH1+CD44+-1 cell line or ALDH1+CD44+-2 cell line); test: Transwell invasion assay; format: cell-based
Text: In this research, the effect of BP on inhibiting the migration and invasion of cancer stem cells was investigated by a transwell invasion assay system (i.e., Transwell® system, purchased from Corning, UK) with a polycarbonate filter membrane of 8-μm pore size (purchased from Corning, UK). First, the polycarbonate filter membrane was coated with Matrigel™ (purchased from BD Pharmingen, USA), and then, the coated membrane was placed in the […] of the transwell invasion assay system. Then, the lower chamber was filled with 10% serum-containing medium. On the other hand, HNC-TIC-like oral stem cells (i.e., ALDH1^+CD44^+-1 cell line or ALDH1^+CD44^+-2 cell line) were treated with different concentrations (0, 25 and 50 μg/ml) of BP for 24 hours, and then, the treated cells of each group was cultured in the upper chamber which was filled with serum-free medium, at a cell density of […] cells/100 μl for 24 hours. […] The invasion cancer cells of each group were counted and photographed over five visual fields of the membrane with the use of a 100-fold magnification under a microscope. The relative invasion ability of cells of each experimental group was calculated based on the result of the group treated with 0 μg/ml of BP.

[7] = test system: HNC-TIC-like oral stem cells stably transfected with GFP-tagged constructs; test: Tumor initiating activity animal experiment (subcutaneous GFP-tagged HNC-TIC-like oral stem cells); format: in vivo, BALB/c nu/nu mice
Method: In this research, the effect of BP on inhibiting the tumor initiating activity of cancer stem cells was further investigated by animal experiments. First, 5-6 weeks old BALB/c nu/nu mice (weight 18-22 g) were bred under the same condition for 4 weeks. Then, HNC-TIC-like oral stem cells stably transfected with GFP-tagged constructs were injected (1×10^4 cells/0.1 mL/mouse) subcutaneously into the axilla of mice. After tumors reached 100 mm^3, mice were grouped into one control group and two experimental groups (three groups in total, n=3 per group). Then, one experimental group was injected daily with 100 mg/kg of BP for 6 days and another experimental group was injected daily with 200 mg/kg of BP for 6 days. The control group was injected daily with a vehicle (without BP) for 6 days. Ten days after the injection of BP or vehicle, the length and width were measured every 2 days (22 days in total), and then, the average tumor volume was calculated according to the following Formula 1. At the same time, the GFP signal (i.e., green fluorescence) of each group was detected and photographed by the IVIS Imaging system. The GFP intensity of each group was analyzed by Image-Pro Plus software. [length×width^2]/2 (unit: mm^3) Formula 1: […]

CCCC=C1OC(=O)c2ccccc21 [BP, butylidenephthalide]
expression of Sox-2 protein (Sox-2 [1]): significantly decreased along with the increment in the concentration of BP
expression of CD44 protein (CD44): significantly decreased along with the increment in the concentration of BP
expression of Oct4 protein (Oct4): significantly decreased along with the increment in the concentration of BP
viability of HNC-TIC-like oral stem cells [2]: decreased along with the increment in the concentration of BP
expression of CD133 protein (CD133): significantly decreased along with the increment in the concentration of BP
expression of Sox-2 protein (Sox-2 [3]): significantly decreased along with the increment in the concentration of BP
number of colonies in the bottom agar ([4]; 0, 25 and 50 μg/ml BP for 24 hours, 4 weeks culture, FIG. 6A): significantly decreased along with the increment in the concentration of BP
relative colony-forming ability ([4]; 0, 25 and 50 μg/ml BP, relative to 0 μg/ml group, FIG. 6B): decreased along with the increment in the concentration of BP
viability of NHOKs ([5]; 0, 25, 50 and 100 μg/ml BP, MTT, FIG. 1): did not decrease along with the increment in the concentration of BP
cytotoxicity to normal cells ([5]; NHOKs, up to 100 μg/ml BP): no cytotoxicity to normal cells
number of live cells with ALDH activity (ALDH): increased along with the increment in the concentration of BP
number of cells on the polycarbonate filter membrane ([6]; 0, 25 and 50 μg/ml BP for 24 hours, then 24 hours transwell, FIG. 5A): significantly reduced along with the increment in the concentration of BP
relative invasion ability ([6]; 0, 25 and 50 μg/ml BP, relative to 0 μg/ml group, FIG. 5B): decreased along with the increment in the concentration of BP
tumor volume ([7]; 100 mg/kg and 200 mg/kg BP groups, daily for 6 days, compared to control group, FIG. 7B): decreased over a period of time
GFP intensity ([7]; 100 mg/kg and 200 mg/kg BP groups, daily for 6 days, compared to control group, FIG. 7C, 7D): significantly decreased
body weight of mice ([7]; 100 mg/kg or 200 mg/kg BP injected daily for 6 days, FIG. 7A): didn't change significantly
